Legend:
[1] = system: umbrella sedge; assay: Test C flooded paddy test; type: in vivo, Cyperus difformis; conditions: Flood
How it was run: (§1)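 Ratings were visual and made relative to untreated controls after 13 to 15 greenhouse days.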

[2] = system: rice; assay: Test C flooded paddy test; type: in vivo, Oryza sativa; conditions: Flood
How it was run: as §1

[3] = system: crabgrass; assay: Test A pre-/postemergence greenhouse test; type: in vivo, Digitaria sanguinalis; conditions: for Plant response rating, Crabgrass, Large: 0 to 100 scale where 0 is no effect and 100 is complete control; for Crabgrass, Large plant response rating: 0 to 100 scale
How it was run: (§2)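 Pots of loam–sand soil sown with the test species are sprayed preemergence on the soil surface; emerged seedlings (1–2 leaves, 2–10 cm) are sprayed postemergence at the same time. The vehicle is a non-phytotoxic solvent mixture with surfactant. Injury is scored visually after ~10 d in greenhouse.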

[4] = system: wheat; assay: Test A pre-/postemergence greenhouse test; type: in vivo, Triticum aestivum; conditions: for Plant response rating, Wheat: 0 to 100 scale where 0 is no effect and 100 is complete control; for Wheat plant response rating: 0 to 100 scale
How it was run: as §2

[5] = system: barnyardgrass; assay: Test C flooded paddy test; type: in vivo, Echinochloa crus-galli; conditions: Flood
How it was run: as §1

[6] = system: giant foxtail; assay: Test A pre-/postemergence greenhouse test; type: in vivo, Setaria faberi; conditions: for Plant response rating, Foxtail, Giant: 0 to 100 scale where 0 is no effect and 100 is complete control; for Foxtail, Giant plant response rating: 0 to 100 scale
How it was run: as §2

[7] = system: corn; assay: Test A pre-/postemergence greenhouse test; type: in vivo, Zea mays; conditions: for Plant response rating, Corn: 0 to 100 scale where 0 is no effect and 100 is complete control; for Corn plant response rating: 0 to 100 scale
How it was run: as §2

[8] = system: redroot pigweed; assay: Test A pre-/postemergence greenhouse test; type: in vivo, Amaranthus retroflexus; conditions: for Plant response rating, Pigweed: 0 to 100 scale where 0 is no effect and 100 is complete control; for Pigweed plant response rating: 0 to 100 scale
How it was run: as §2

[9] = system: velvetleaf; assay: Test A pre-/postemergence greenhouse test; type: in vivo, Abutilon theophrasti; conditions: for Plant response rating, Velvetleaf: 0 to 100 scale where 0 is no effect and 100 is complete control; for Velvetleaf plant response rating: 0 to 100 scale
How it was run: as §2

[10] = system: barnyardgrass; assay: Test A pre-/postemergence greenhouse test; type: in vivo, Echinochloa crus-galli; conditions: for Plant response rating, Barnyardgrass: 0 to 100 scale where 0 is no effect and 100 is complete control; for Barnyardgrass plant response rating: 0 to 100 scale
How it was run: as §2

[11] = system: morningglory; assay: Test A pre-/postemergence greenhouse test; type: in vivo, Ipomoea spp.; conditions: for Plant response rating, Morningglory: 0 to 100 scale where 0 is no effect and 100 is complete control; for Morningglory plant response rating: 0 to 100 scale
How it was run: as §2

[12] = system: duck salad; assay: Test C flooded paddy test; type: in vivo, Heteranthera limosa; conditions: Flood
How it was run: as §1

[13] = 31 g ai/ha, scale 0 to 100 (0 no effect, 100 complete control)
[14] = 62 g ai/ha, scale 0 to 100 (0 no effect, 100 complete control)
[15] = 125 g ai/ha, scale 0 to 100, 0 no effect, 100 complete control, 13 to 15 days
[16] = 250 g ai/ha, scale 0 to 100, 0 no effect, 100 complete control, 13 to 15 days
[17] = Postemergence, 500 g ai/ha, 0 is no effect, 100 is complete control
[18] = Preemergence, 125 g ai/ha, 0 no effect, 100 complete control
[19] = Preemergence, 500 g ai/ha, 0 no effect, 100 complete control

Compound: Cn1nc(C(F)(F)F)c(CS(=O)(=O)c2ccc(F)c[n+]2[O-])c1OC(F)F [Compound 107]
- Plant response rating, Sedge, Umbrella [1, 13]: 0
- Plant response rating, Sedge, Umbrella [1, 14]: 0
- Plant response rating, Sedge, Umbrella [1, 15]: 0
- Plant response rating, Sedge, Umbrella [1, 16]: 20
- Plant response rating, Rice [2, 13]: 0
- Plant response rating, Rice [2, 14]: 0
- Plant response rating, Rice [2, 15]: 0
- Plant response rating, Rice [2, 16]: 0
- Plant response rating, Crabgrass, Large ([3]; Postemergence, 125 g ai/ha): 70
- Crabgrass, Large plant response rating [3, 17]: 80
- Crabgrass, Large plant response rating [3, 18]: 60
- Crabgrass, Large plant response rating [3, 19]: 80
- Plant response rating, Wheat ([4]; Postemergence, 125 g ai/ha): 0
- Wheat plant response rating [4, 17]: 0
- Wheat plant response rating [4, 18]: 0
- Wheat plant response rating [4, 19]: 0
- Plant response rating, Barnyardgrass [5, 13]: 0
- Plant response rating, Barnyardgrass [5, 14]: 0
- Plant response rating, Barnyardgrass [5, 15]: 20
- Plant response rating, Barnyardgrass [5, 16]: 40
- Plant response rating, Foxtail, Giant ([6]; Postemergence, 125 g ai/ha): 70
- Foxtail, Giant plant response rating [6, 17]: 80
- Foxtail, Giant plant response rating [6, 18]: 60
- Foxtail, Giant plant response rating [6, 19]: 90
- Plant response rating, Corn ([7]; Postemergence, 125 g ai/ha): 0
- Corn plant response rating [7, 17]: 0
- Corn plant response rating [7, 18]: 0
- Corn plant response rating [7, 19]: 0
- Plant response rating, Pigweed ([8]; Postemergence, 125 g ai/ha): 40
- Pigweed plant response rating [8, 17]: 50
- Pigweed plant response rating [8, 18]: 40
- Pigweed plant response rating [8, 19]: 60
- Plant response rating, Velvetleaf ([9]; Postemergence, 125 g ai/ha): 0
- Velvetleaf plant response rating [9, 17]: 0
- Velvetleaf plant response rating [9, 18]: 0
- Velvetleaf plant response rating [9, 19]: 10
- Plant response rating, Barnyardgrass ([10]; Postemergence, 125 g ai/ha): 40
- Barnyardgrass plant response rating [10, 17]: 60
- Barnyardgrass plant response rating [10, 18]: 70
- Barnyardgrass plant response rating [10, 19]: 90
- Plant response rating, Morningglory ([11]; Postemergence, 125 g ai/ha): 0
- Morningglory plant response rating [11, 17]: 50
- Morningglory plant response rating [11, 18]: 0
- Morningglory plant response rating [11, 19]: 60
- Plant response rating, Ducksalad [12, 13]: 0
- Plant response rating, Ducksalad [12, 14]: 0
- Plant response rating, Ducksalad [12, 15]: 0
- Plant response rating, Ducksalad [12, 16]: 65

Compound: CC(C)c1cc[n+]([O-])c(S(=O)(=O)Cc2c(C(F)(F)F)nn(C)c2OC(F)F)c1 [Compound 110]
- Plant response rating, Sedge, Umbrella [1, 13]: 0
- Plant response rating, Sedge, Umbrella [1, 14]: 0
- Plant response rating, Sedge, Umbrella [1, 15]: 0
- Plant response rating, Sedge, Umbrella [1, 16]: 30
- Plant response rating, Rice [2, 13]: 0
- Plant response rating, Rice [2, 14]: 0
- Plant response rating, Rice [2, 15]: 0
- Plant response rating, Rice [2, 16]: 0
- Plant response rating, Crabgrass, Large ([3]; Postemergence, 125 g ai/ha): 70
- Crabgrass, Large plant response rating [3, 17]: 90
- Crabgrass, Large plant response rating [3, 18]: 50
- Crabgrass, Large plant response rating [3, 19]: 100
- Plant response rating, Wheat ([4]; Postemergence, 125 g ai/ha): 20
- Wheat plant response rating [4, 17]: 60
- Wheat plant response rating [4, 18]: 30
- Wheat plant response rating [4, 19]: 70
- Plant response rating, Barnyardgrass [5, 13]: 0
- Plant response rating, Barnyardgrass [5, 14]: 0
- Plant response rating, Barnyardgrass [5, 15]: 0
- Plant response rating, Barnyardgrass [5, 16]: 0
- Plant response rating, Foxtail, Giant ([6]; Postemergence, 125 g ai/ha): 80
- Foxtail, Giant plant response rating [6, 17]: 90
- Foxtail, Giant plant response rating [6, 18]: 80
- Foxtail, Giant plant response rating [6, 19]: 100
- Plant response rating, Corn ([7]; Postemergence, 125 g ai/ha): 0
- Corn plant response rating [7, 17]: 60
- Corn plant response rating [7, 18]: 0
- Corn plant response rating [7, 19]: 60
- Plant response rating, Pigweed ([8]; Postemergence, 125 g ai/ha): 70
- Pigweed plant response rating [8, 17]: 80
- Pigweed plant response rating [8, 18]: 80
- Pigweed plant response rating [8, 19]: 100
- Plant response rating, Velvetleaf ([9]; Postemergence, 125 g ai/ha): 60
- Velvetleaf plant response rating [9, 17]: 80
- Velvetleaf plant response rating [9, 18]: 50
- Velvetleaf plant response rating [9, 19]: 100
- Plant response rating, Barnyardgrass ([10]; Postemergence, 125 g ai/ha): 60
- Barnyardgrass plant response rating [10, 17]: 80
- Barnyardgrass plant response rating [10, 18]: 90
- Barnyardgrass plant response rating [10, 19]: 100
- Plant response rating, Morningglory ([11]; Postemergence, 125 g ai/ha): 40
- Morningglory plant response rating [11, 17]: 100
- Morningglory plant response rating [11, 18]: 60
- Morningglory plant response rating [11, 19]: 100
- Plant response rating, Ducksalad [12, 13]: 0
- Plant response rating, Ducksalad [12, 14]: 0
- Plant response rating, Ducksalad [12, 15]: 50
- Plant response rating, Ducksalad [12, 16]: 75

Compound: Cc1ccc[n+]([O-])c1[S+]([O-])Cc1c(C(F)(F)F)nn(C)c1OC(F)F (stereo not drawn) [Compound 112]
- Plant response rating, Sedge, Umbrella [1, 13]: 0
- Plant response rating, Sedge, Umbrella [1, 14]: 30
- Plant response rating, Sedge, Umbrella [1, 15]: 75
- Plant response rating, Sedge, Umbrella [1, 16]: 95
- Plant response rating, Rice [2, 13]: 0
- Plant response rating, Rice [2, 14]: 0
- Plant response rating, Rice [2, 15]: 0
- Plant response rating, Rice [2, 16]: 15
- Plant response rating, Crabgrass, Large ([3]; Postemergence, 125 g ai/ha): 70
- Crabgrass, Large plant response rating [3, 17]: 80
- Crabgrass, Large plant response rating [3, 18]: 70
- Crabgrass, Large plant response rating [3, 19]: 90
- Plant response rating, Wheat ([4]; Postemergence, 125 g ai/ha): 50
- Wheat plant response rating [4, 17]: 60
- Wheat plant response rating [4, 18]: 40
- Wheat plant response rating [4, 19]: 70
- Plant response rating, Barnyardgrass [5, 13]: 0
- Plant response rating, Barnyardgrass [5, 14]: 0
- Plant response rating, Barnyardgrass [5, 15]: 15
- Plant response rating, Barnyardgrass [5, 16]: 45
- Plant response rating, Foxtail, Giant ([6]; Postemergence, 125 g ai/ha): 70
- Foxtail, Giant plant response rating [6, 17]: 80
- Foxtail, Giant plant response rating [6, 18]: 80
- Foxtail, Giant plant response rating [6, 19]: 100
- Plant response rating, Corn ([7]; Postemergence, 125 g ai/ha): 50
- Corn plant response rating [7, 17]: 60
- Corn plant response rating [7, 18]: 40
- Corn plant response rating [7, 19]: 70
- Plant response rating, Pigweed ([8]; Postemergence, 125 g ai/ha): 40
- Pigweed plant response rating [8, 17]: 60
- Pigweed plant response rating [8, 18]: 10
- Pigweed plant response rating [8, 19]: 90
- Plant response rating, Velvetleaf ([9]; Postemergence, 125 g ai/ha): 50
- Velvetleaf plant response rating [9, 17]: 70
- Velvetleaf plant response rating [9, 18]: 10
- Velvetleaf plant response rating [9, 19]: 60
- Plant response rating, Barnyardgrass ([10]; Postemergence, 125 g ai/ha): 70
- Barnyardgrass plant response rating [10, 17]: 80
- Barnyardgrass plant response rating [10, 18]: 60
- Barnyardgrass plant response rating [10, 19]: 90
- Plant response rating, Morningglory ([11]; Postemergence, 125 g ai/ha): 70
- Morningglory plant response rating [11, 17]: 90
- Morningglory plant response rating [11, 18]: 60
- Morningglory plant response rating [11, 19]: 90
- Plant response rating, Ducksalad [12, 13]: 0
- Plant response rating, Ducksalad [12, 14]: 0
- Plant response rating, Ducksalad [12, 15]: 20
- Plant response rating, Ducksalad [12, 16]: 50

— patent publication US20100298141A1, “SUBSTITUTED PYRIDINE N-OXIDE HERBICIDES” (E. I. DU PONT DE NEMOURS AND COMPANY, priority 2007, published 2010)
